In US7381521B2, “Anti-pathogenic composition useful in blood preservation” (Altachem Pharma Ltd., priority 2001, dated 2008):

Assays:
E. coli ATCC 11229 = experiment: Test 2 (DGHM), growth inhibition by dilutions, 72 hours at 37° C.; type: cell-based, Escherichia coli
Protocol: Another test was carried out a basis of the following solutions • 100 ml of a 0.1% solution of chlorohexidine digluconate (pH 6); and • 100 ml of a 0.1% solution of Bardac22®.
The activity of these solutions, alone or in combination, was more particularly tested in respect of Staphylococcus aureus ATCC 6538, Escherichia coli ATCC 11229 and Candida albicans ATCC 10231.
The tests were conducted in accordance with the procedure described in Chapter I/2.1 and 2.2 of Tichtlinien für die Prüfung und Bewertung chemischer Desinfektionsverfahren der DGHM/Guidelines for Testing and Evaluating Chemical Disinfection Processes of DGHM as at 1.1, 1981.
Tables IX, X and XI respectively illustrate the bactericidal and fungicidal activity of a 0.1% aqueous solution of chlorohexidine digluconate, a 0.1% aqueous solution of Bardac22® and a mixture of equal parts of both compounds. The procedures of which these Tables illustrate the results comprise incubation of 72 hours at 37° C. and the use of the following inactivating substances as controls: • A: 3% Tween®80+0.3% lecithin+0.1% cysteine • B: 3% Tween®80+3% saponin+0.1% cysteine+0.1% histidine; • C: 3% Tween®80+0.3% lecithin+0.1% histidine+0.5% sodium thiosulphate.
In these Tables, the sign “+” indicates an increase and the sign “−” denotes the absence of growth.

HIV-1 virus = experiment: Infectivity of HIV-1 treated 10 minutes with product for normal human T lymphocytes (reverse transcriptase activity, ATI, in culture supernatants); type: cell-based
Text: Infectivity is studied on T lymphocytes obtained from peripheral blood of a healthy human donor and separated on a Ficoll gradient.
The lymphocytes are stimulated for 3 days by phytohaemaglutinin P (PHA P) diluted to 1/500 and cultivated in a complete medium. The blastic cells T are infected by the virus, treated or not, in order to show up residual infectious strength.
The viruses obtained from a supernatant culture of an HIV-1 infected CEM line. This T lymphoblastoid line infected by HIV-1 is used for viral production.
The titer of the supernatant substances used is evaluated after quantitative analysis of the reverse transcriptase activity (ATI) of the virus.
In the following tests, a supernatant substance was used, the ATI of which was 1.8×10^6 cpm/ml.
Preparation of the viral solution: several tubes containing 1 ml viral supernatant, ATI 1.8×10^6 cmp/ml are, concentrated by ultracentrifugation. The resulting virus residues are taken up either by each of the different dilutions of QACs produced in sterile bidistilled water or by water (untreated control virus).
Treatment of viral preparations: the concentrated viral preparations are all treated according to the following procedure:
Treated virus samples: the virus residues concentrated by ultracentrifugation are resuspended in 100, μl of each of the concentrations in terms of products (QACs) studied and incubated for 10 minutes.
Control viral sample: untreated control virus: the product is replaced by 100 μl of sterile bidistilled water.
Following this 10 minute incubation time, the virus present in each sample is rinsed and then reconcentrated by addition of 12 ml of RPMI 1640 medium and ultracentrifugation. The virus residues are then taken up in 1 ml of complete medium and used for infecting normal human T lymphocytes.
Measurement of the infectivity of the samples: 4×10^6 normal human T lymphocytes are infected with each of the treated viral preparations or controls mentioned hereinabove. Infection of the T cells is carried out according to a previously described method (F. Barre Sinoussi et al. Science, 1983, 220:868-871): to sum up, 4×10^6 cells in suspension in 1 ml of complete medium are incubated with 1 ml of each of the treated vial preparations or controls for 1 hour at 37° C.
After two washings using several millilitres of culture medium, the cellular suspensions are adjusted to the concentration of 1×10^6 cells per ml. The day of the infection is regarded as day 0.
Viral production during the course of time is determined by measuring the reverse transcriptase activity present in the culture supernatants using the procedure described below.
This quantitative analysis makes it possible to evaluate the presence of noninactivated residual virus in the staring sample. It is carried out on a basis of 1 ml of culture supernatant taken every 2 or 3 days and ultracentrifuged.
The enzymatic activities are measured in 50 μl of a reaction mixture containing 50 mM Tris pH 7.8, 20 mM MgCl2, 20 mM KCl, 2 mM dithiotreitol, 0.25 OD/ml, oligo dT, 0.25 OD/ml poly rA, 0.1% Triton×100 and 2.5 μCi 3H DTTP.
After incubation for 1 hour at 37° C., the reaction is stopped by the addition of 10 μl of 0.2 M EDTA and the samples are deposited on DE81 membranes.
After several washings using 5% Na2HPO4, then by distilled water, the membranes are dried and the radioactivity measured by means of a p scintillation counter (PACKARD).

CCCCCCCCCC[N+](C)(C)CCCCCCCCCC.[Cl-] [Bardac ®, didecyl dimethyl ammonium chloride]
concentration of active substance inhibiting growth (E. coli ATCC 11229): 0.0005% | dilution of the 0.1% solution inhibiting growth (E. coli ATCC 11229): 0.5% | growth (E. coli ATCC 11229; 0.00625% vol/vol, inactivator A): + | growth (E. coli ATCC 11229; 0.00625% vol/vol, inactivator B): + | growth (E. coli ATCC 11229; 0.00625% vol/vol, inactivator C): + | growth (E. coli ATCC 11229; 0.00625% vol/vol, no inactivator): + | growth (E. coli ATCC 11229; 0.0125% vol/vol, inactivator A): + | growth (E. coli ATCC 11229; 0.0125% vol/vol, inactivator B): + | growth (E. coli ATCC 11229; 0.0125% vol/vol, inactivator C): + | growth (E. coli ATCC 11229; 0.0125% vol/vol, no inactivator): + | growth (E. coli ATCC 11229; 0.025% vol/vol, inactivator A): + | growth (E. coli ATCC 11229; 0.025% vol/vol, inactivator B): + | growth (E. coli ATCC 11229; 0.025% vol/vol, inactivator C): + | growth (E. coli ATCC 11229; 0.025% vol/vol, no inactivator): + | growth (E. coli ATCC 11229; 0.05% vol/vol, inactivator A): + | growth (E. coli ATCC 11229; 0.05% vol/vol, inactivator B): + | growth (E. coli ATCC 11229; 0.05% vol/vol, inactivator C): + | growth (E. coli ATCC 11229; 0.05% vol/vol, no inactivator): + | growth (E. coli ATCC 11229; 0.1% vol/vol, inactivator A): + | growth (E. coli ATCC 11229; 0.1% vol/vol, inactivator B): + | growth (E. coli ATCC 11229; 0.1% vol/vol, inactivator C): + | growth (E. coli ATCC 11229; 0.1% vol/vol, no inactivator): + | growth (E. coli ATCC 11229; 0.5% vol/vol, inactivator A): + | growth (E. coli ATCC 11229; 0.5% vol/vol, inactivator B): + | growth (E. coli ATCC 11229; 0.5% vol/vol, inactivator C): + | growth (E. coli ATCC 11229; 0.5% vol/vol, no inactivator): − | growth (E. coli ATCC 11229; 1.0% vol/vol, inactivator A): + | growth (E. coli ATCC 11229; 1.0% vol/vol, inactivator B): + | growth (E. coli ATCC 11229; 1.0% vol/vol, inactivator C): + | growth (E. coli ATCC 11229; 1.0% vol/vol, no inactivator): − | ATI in supernatant (HIV-1 virus; Bardac 0.0004%, J3): 702 cpm/ml | ATI in supernatant (HIV-1 virus; Bardac 0.0004%, J6): 18136 cpm/ml | ATI in supernatant (HIV-1 virus; Bardac 0.0004%, J10): 117326 cpm/ml | ATI in supernatant (HIV-1 virus; Bardac 0.0004%, J13): 74214 cpm/ml | ATI in supernatant (HIV-1 virus; Bardac 0.0004%, J17): 50674 cpm/ml | ATI in supernatant (HIV-1 virus; Bardac 0.0004%, J20): 22478 cpm/ml | ATI in supernatant (HIV-1 virus; Bardac 0.0004%, J23): 13806 cpm/ml | ATI in supernatant (HIV-1 virus; Bardac 0.0004%, J27): 7800 cpm/ml | ATI in supernatant (HIV-1 virus; Bardac 0.0004%, J30): 4426 cpm/ml | ATI in supernatant (HIV-1 virus; Bardac 0.002%, J3): 464 cpm/ml | ATI in supernatant (HIV-1 virus; Bardac 0.002%, J6): 2472 cpm/ml | ATI in supernatant (HIV-1 virus; Bardac 0.002%, J10): 16066 cpm/ml | ATI in supernatant (HIV-1 virus; Bardac 0.002%, J13): 24902 cpm/ml | ATI in supernatant (HIV-1 virus; Bardac 0.002%, J17): 77754 cpm/ml | ATI in supernatant (HIV-1 virus; Bardac 0.002%, J20): 75554 cpm/ml | ATI in supernatant (HIV-1 virus; Bardac 0.002%, J23): 101394 cpm/ml | ATI in supernatant (HIV-1 virus; Bardac 0.002%, J27): 80560 cpm/ml | ATI in supernatant (HIV-1 virus; Bardac 0.002%, J30): 64692 cpm/ml | ATI in supernatant (HIV-1 virus; Bardac 0.004%, J3): 346 cpm/ml | ATI in supernatant (HIV-1 virus; Bardac 0.004%, J6): 298 cpm/ml | ATI in supernatant (HIV-1 virus; Bardac 0.004%, J10): 160 cpm/ml | ATI in supernatant (HIV-1 virus; Bardac 0.004%, J13): 170 cpm/ml | ATI in supernatant (HIV-1 virus; Bardac 0.004%, J17): 350 cpm/ml | ATI in supernatant (HIV-1 virus; Bardac 0.004%, J20): 218 cpm/ml | ATI in supernatant (HIV-1 virus; Bardac 0.004%, J23): 444 cpm/ml | ATI in supernatant (HIV-1 virus; Bardac 0.004%, J27): 244 cpm/ml | ATI in supernatant (HIV-1 virus; Bardac 0.004%, J30): 264 cpm/ml | ATI in supernatant (HIV-1 virus; Bardac 0.006%, J3): 320 cpm/ml | ATI in supernatant (HIV-1 virus; Bardac 0.006%, J6): 326 cpm/ml | ATI in supernatant (HIV-1 virus; Bardac 0.006%, J10): 204 cpm/ml | ATI in supernatant (HIV-1 virus; Bardac 0.006%, J13): 248 cpm/ml | ATI in supernatant (HIV-1 virus; Bardac 0.006%, J17): 364 cpm/ml | ATI in supernatant (HIV-1 virus; Bardac 0.006%, J20): 180 cpm/ml | ATI in supernatant (HIV-1 virus; Bardac 0.006%, J23): 328 cpm/ml | ATI in supernatant (HIV-1 virus; Bardac 0.006%, J27): 588 cpm/ml | ATI in supernatant (HIV-1 virus; Bardac 0.006%, J30): 196 cpm/ml | ATI in supernatant (HIV-1 virus; Bardac 0.01%, J3): 334 cpm/ml | ATI in supernatant (HIV-1 virus; Bardac 0.01%, J6): 222 cpm/ml | ATI in supernatant (HIV-1 virus; Bardac 0.01%, J10): 1768 cpm/ml | ATI in supernatant (HIV-1 virus; Bardac 0.01%, J13): 1592 cpm/ml | ATI in supernatant (HIV-1 virus; Bardac 0.01%, J17): 190 cpm/ml | ATI in supernatant (HIV-1 virus; Bardac 0.01%, J20): 390 cpm/ml | ATI in supernatant (HIV-1 virus; Bardac 0.01%, J23): 1328 cpm/ml | ATI in supernatant (HIV-1 virus; Bardac 0.01%, J27): 780 cpm/ml | ATI in supernatant (HIV-1 virus; Bardac 0.01%, J30): 1000 cpm/ml
